Laboratory results: patent publication US20260294915A1, “COMBINATION THERAPY COMPRISING A MAT2A INHIBITOR AND A TOPOISOMERASE INHIBITOR, A SPLICING INHIBITOR SULFONAMIDE, OR A KIF18 INHIBITOR” (IDEAYA BIOSCIENCES, INC., priority 2023, published 2026)

Key:
Assay in all cases: 10-day proliferation (CTG), equimolar Compound A + Compound B (Example 1)
Type in all cases: cell-based
[1] = tested on: NCI-H520; settings: Homo sapiens, NCI-H520, 240 h, 10 days, single agent or 1:1 combo; for IC30: read-out: gIC30; for IC40: read-out: gIC40; for IC50: read-out: gIC50; for IC60: read-out: gIC60; for IC70: read-out: gIC70; for IC80: read-out: gIC80; for IC90: read-out: gIC90; for IC100: read-out: gIC100
Procedure: (§1) A 10-day proliferation assay was performed in a panel of 5 MTAP-deficient and 2 wild type non-small cell lung and bladder cancer cell lines. Optimal cell seeding for all cell lines was determined by assessing the growth over a range of seeding densities in a 384-well format to identify conditions that permitted proliferation for 10 days. Cells were then plated at the optimal seeding density and treated with 20-point, two-fold dilution series of Compound A, sovilnesib (“Compound B”), or an equimolar combination of Compound A and Compound B. Concentrations tested for Compound A and Compound B alone or in combination ranged from 0.038 nM to 20,000 nM. A plate of cells was harvested at the time of compound addition to quantify the number of cells at the start of the combination (T0). For cell quantification, the harvested cells were lysed with Promega CellTiter-Glo (CTG) reagent according to the manufacturer's protocol and the chemiluminescent signal was detected on a Synergy Neo plate reader. CTG estimates cell number through detection of cellular ATP levels. Cells were incubated with the drug combinations at 37° C. with 5% CO2 for 10 days. Cells were then lysed with CTG and the chemiluminescent signal was measured.
(§2) CTG values obtained after the 10-day treatment were background subtracted and expressed as a percent of the T0 value. Data were plotted against compound concentration and fit with a four-parameter equation to generate dose response curves for each single agent and the equimolar combination. Growth ICx (gICx) values ranging from gIC30 to gIC100 were interpolated from the fitted curves. Synergistic growth inhibition was assessed by determination of Combination Index (CI) values at these various points across the titration using the mutually non-exclusive equation [Chou, 1983; Chou, 1981] shown below where A equals the gIC value of Compound A, B equals the gICx value of Compound B, and A+B or B+A equals the gICx value of the equimolar combination. A Combination Index value less than 1.0 was considered synergistic.
(§3) Synergy was measured for equimolar combinations of Compound A and Compound B utilizing the mutually non-exclusive Combination Index equation across gICx values ranging from gIC30-gIC100. Combination Index values are shown for: NCI-H520 (4A) and TCCSUP (41B).

[2] = tested on: TCCSUP; settings: Homo sapiens, TCC-SUP, 240 h, 10 days, single agent or 1:1 combo; for IC100: read-out: gIC100, heading: gIC100; for IC30: read-out: gIC30; for IC40: read-out: gIC40; for IC50: read-out: gIC50; for IC60: read-out: gIC60; for IC70: read-out: gIC70; for IC80: read-out: gIC80; for IC90: read-out: gIC90
Procedure: as §1, §2, §3

[3] = tested on: NCI-H838; settings: Homo sapiens, NCI-H838, 240 h, 10 days, single agent or 1:1 combo; for IC30: read-out: gIC30; for IC40: read-out: gIC40; for IC50: read-out: gIC50; for IC60: read-out: gIC60; for IC70: read-out: gIC70; for IC80: read-out: gIC80; for IC90: read-out: gIC90; for IC100: read-out: gIC100
Procedure: as §1, §2
(§4) Synergy was measured for equimolar combinations of Compound A and Compound B utilizing the mutually non-exclusive Combination Index equation across gICx values ranging from gIC30-gIC100. Combination Index values are shown for: NCI-H838 (3A), SW900 (3B), RT112/84 (3C), UMUC5 (3D), and UMUC11 (3E).

[4] = tested on: UMUC5; settings: 240 h, 10 days, single agent or 1:1 combo; for IC30: read-out: gIC30; for IC40: read-out: gIC40; for IC50: read-out: gIC50; for IC60: read-out: gIC60; for IC70: read-out: gIC70; for IC80: read-out: gIC80; for IC90: read-out: gIC90; for IC100: read-out: gIC100
Procedure: as §1, §2, §4

[5] = tested on: UMUC11; settings: 240 h, 10 days, single agent or 1:1 combo; for IC30: read-out: gIC30; for IC40: read-out: gIC40; for IC50: read-out: gIC50; for IC60: read-out: gIC60; for IC70: read-out: gIC70; for IC80: read-out: gIC80; for IC90: read-out: gIC90; for IC100: read-out: gIC100
Procedure: as §1, §2, §4

Cc1cc(NC(=O)c2ccc(NS(=O)(=O)CCO)cc2N2CCC3(CC2)CC3)nc(N2CCC(F)(F)CC2)n1 [Compound B, N-(2-(4,4-difluoropiperidin-1-yl)-6-methylpyrimidin-4-yl)-4-((2-hydroxyethyl)sulfonamido)-2-(6-azaspiro[2.5]octan-6-yl)benzamide]
IC30 [1]: 2.81 µM | IC40 [1]: 4.16 µM | IC50 [1]: 5.8 µM | IC60 [1]: 7.73 µM | IC70 [1]: 9.98 µM | IC80 [1]: 12.5 µM | IC90 [1]: 15.5 µM | IC100 [1]: 18.7 µM | IC100 [2]: > 20 µM | IC30 [2]: 0.091 µM | IC40 [2]: 0.107 µM | IC50 [2]: 0.126 µM | IC60 [2]: 0.15 µM | IC70 [2]: 0.183 µM | IC80 [2]: 0.24 µM | IC90 [2]: 0.405 µM | IC30 [3]: 0.735 µM | IC40 [3]: 1.48 µM | IC50 [3]: 12.5 µM | IC60 [3]: 14.3 µM | IC70 [3]: 17 µM | IC80 [3]: 20 µM | IC90 [3]: 20 µM | IC100 [3]: 20 µM | IC30 [4]: 0.17 µM | IC40 [4]: 0.194 µM | IC50 [4]: 0.221 µM | IC60 [4]: 0.253 µM | IC70 [4]: 0.296 µM | IC80 [4]: 0.37 µM | IC90 [4]: 0.662 µM | IC100 [4]: 20 µM | IC30 [5]: 2.2 µM | IC40 [5]: 3.48 µM | IC50 [5]: 5.17 µM | IC60 [5]: 7.3 µM | IC70 [5]: 9.95 µM | IC80 [5]: 13.2 µM | IC90 [5]: 17.1 µM | IC100 [5]: 20 µM

Nc1nc(=O)n(-c2ccccc2Cl)c2nc(C(F)(F)F)ccc12 [Compound A]
IC30 [1]: 20 µM | IC40 [1]: 20 µM | IC50 [1]: 20 µM | IC60 [1]: 20 µM | IC70 [1]: 20 µM | IC80 [1]: 20 µM | IC90 [1]: 20 µM | IC100 [1]: 20 µM | IC100 [2]: > 20 µM | IC30 [2]: 20 µM | IC40 [2]: 20 µM | IC50 [2]: 20 µM | IC60 [2]: 20 µM | IC70 [2]: 20 µM | IC80 [2]: 20 µM | IC90 [2]: 20 µM | IC30 [3]: 0.052 µM | IC40 [3]: 0.09 µM | IC50 [3]: 0.208 µM | IC60 [3]: 20 µM | IC70 [3]: 20 µM | IC80 [3]: 20 µM | IC90 [3]: 20 µM | IC100 [3]: 20 µM | IC30 [4]: 0.357 µM | IC40 [4]: 1.35 µM | IC50 [4]: 5.16 µM | IC60 [4]: 19.4 µM | IC70 [4]: 20 µM | IC80 [4]: 20 µM | IC90 [4]: 20 µM | IC100 [4]: 20 µM | IC30 [5]: 20 µM | IC40 [5]: 20 µM | IC50 [5]: 20 µM | IC60 [5]: 20 µM | IC70 [5]: 20 µM | IC80 [5]: 20 µM | IC90 [5]: 20 µM | IC100 [5]: 20 µM
